Test: in vitro
Conditions: human, hela cells, % viability

| Structure (SMILES) | viability at 28.5 h, 10 µM [%] |
| --- | --- |
| Cc1ccc(-c2cc(CC3(C(=O)N(C)C)CCCN(C)C3)on2)cc1 (centres unmarked) [CBK281695] | 89.3 |
| NCCn1cc(-c2cccc(F)c2)c(C2CCOCC2)n1 [CBK281696] | 91.1 |
| CCN1CCc2cc(-c3cncn3CC(=O)NC(C)(C)C)ccc21 [CBK281698] | 94.8 |
| CC1Cc2cc(-c3cncn3CC(=O)NC(C)(C)C)ccc2N1C (centres unmarked) [CBK281699] | 77.3 |
| CC1CCN(C(C)Cn2cncc2-c2cnn(C)c2)CC1 (centres unmarked) [CBK281703] | 95.5 |
| CCn1cc(-c2cncn2CCCC(C)(C)CO)cn1 [CBK281704] | 88.3 |
| Cc1cc(CN(C)Cc2ccc3c(c2)n(C)c(=O)n3C)n[nH]1 [CBK281705] | 101 |
| Cc1cc(CN(C)Cc2c(-c3ccccc3)nn(C)c2C)n[nH]1 [CBK281707] | 88.8 |
| CCn1cc(-c2cncn2CCn2nc(C)c(Cl)c2C)cn1 [CBK281708] | 87.9 |
| CC(CN1CCCC1)NC(=O)c1ccc2c(c1)ncn2C (centres unmarked) [CBK281715] | 102 |
| Cc1cc(CN(C)Cc2c(C)nc3c(C)cccn23)n[nH]1 [CBK281716] | 99.1 |
| CN(CC1(C)COC1)C(=O)CCc1nc2ccccc2[nH]1 [CBK281719] | 88.8 |
| CN(CC1(C)COC1)C(=O)c1cn2cc(Cl)ccc2n1 [CBK281721] | 109 |
| CN(CC1(C)COC1)C(=O)C(c1ccc(F)cc1)N(C)C (centres unmarked) [CBK281722] | 107 |
| Cc1ccc2c(c1)cc(C(=O)N(C)CC1(C)COC1)n2C [CBK281723] | 86.4 |
| CC1CCN(c2ccc(C(C)NC(=O)Cn3cccn3)cc2)CC1 (centres unmarked) [CBK281725] | 86.1 |
| CCC1C(=O)NCCN1C(=O)c1cc2cc(C)ccc2n1C (centres unmarked) [CBK281729] | 110 |
| Cc1nn(C)cc1C(C)NC(=O)c1cn2cccc(C)c2n1 (centres unmarked) [CBK281731] | 92.1 |
| COc1ccc2c(CN(C)Cc3cc(C)[nH]n3)cn(C)c2c1 [CBK281734] | 103 |
| C[C@H]1CN(C(=O)c2cc(C3CC3)no2)[C@@H](C)CN1Cc1ccco1 [CBK281736] | 106 |
| CC(Cn1cncc1-c1cnn(C)c1)Oc1ccccc1Cl (centres unmarked) [CBK281737] | 105 |
| Cc1nn(C)cc1-c1cncn1C(C)(C)CN1CCC(C)CC1 [CBK281740] | 108 |
| CN(C)CCC(c1ccccc1)n1cncc1-c1cnn(C)c1 (centres unmarked) [CBK281742] | 93.6 |
| Cc1nccn1C(C(=O)NCC1(C)COC1)c1ccccc1 (centres unmarked) [CBK281743] | 97.9 |

| Structure (SMILES) | viability at 28.5 h, 10 µM [%] |
| --- | --- |
| Cc1ccc(-c2cc(C(=O)NCC3(C)COC3)no2)cc1 [CBK281744] | 93.8 |
| CC1(CNC(=O)c2ccc(N3CCCCC3)cc2)COC1 [CBK281746] | 105 |
| CC1(CNC(=O)c2cn3cc(Cl)ccc3n2)COC1 [CBK281748] | 91.4 |
| Cc1cccn2cc(C(=O)NCCCn3cccn3)nc12 [CBK281749] | 75.3 |
| CC1(CNC(=O)c2ccccc2Cn2cccn2)COC1 [CBK281750] | 89.4 |
| CC1(CNC(=O)c2cc(-c3cccc(F)c3)no2)COC1 [CBK281751] | 87.7 |
| CN(C)C(C(=O)NCC1(C)COC1)c1ccc(Cl)cc1 (centres unmarked) [CBK281753] | 102 |
| Cc1cc(C)n(-c2ccc(C(=O)NCC3(C)COC3)cc2)n1 [CBK281756] | 92.1 |
| Cc1cc(C)n(C(C)C(=O)N(C)CCn2ccnc2C)n1 (centres unmarked) [CBK281759] | 88.1 |
| Cc1ccccc1OCCCn1cncc1-c1cnn(C)c1 [CBK281762] | 91.1 |
| CN(C)Cc1ccccc1Cn1cncc1-c1cnn(C)c1 [CBK281764] | 99.5 |
| Cc1cccc(C2(Cn3cncc3-c3cnn(C)c3)CCOCC2)c1 [CBK281765] | 79 |
| Cc1cccc(OCCCn2cncc2-c2cn(C)nc2C)c1 [CBK281766] | 90 |
| CCn1cc(-c2cncn2CCCN2CCCCC2)cn1 [CBK281767] | 82.9 |
| CCn1cc(-c2cncn2CCCn2nc(C)cc2C)cn1 [CBK281770] | 97.1 |
| Cc1cc(C)n(CCCn2cncc2-c2cn(C)nc2C)n1 [CBK281772] | 94.8 |
| CCn1cc(-c2cncn2CC(C)n2nc(C)cc2C)cn1 (centres unmarked) [CBK281775] | 87.1 |
| CCn1cc(-c2cncn2CCOc2ccc(Cl)cc2)cn1 [CBK281776] | 81.8 |
| CCn1nc(C)c(-c2cncn2CC(C)n2nc(C)cc2C)c1C (centres unmarked) [CBK281777] | 109 |
| COc1ccc2[nH]c(-c3cncn3CCCC(C)(C)CO)cc2c1 [CBK281778] | 90.9 |
| Cc1nn(C)cc1-c1cncn1CCN(C)C1CCCC1 [CBK281780] | 95.8 |
| CCn1nc(C)c(-c2cncn2CCn2nc(C)c(C)c2C)c1C [CBK281782] | 98.8 |
| Cc1nn(C)cc1-c1cncn1CCn1nc(C)c(C)c1C [CBK281785] | 108 |
| Cc1nn(C)cc1-c1cncn1C(C)Cc1c(C)nn(C)c1C (centres unmarked) [CBK281786] | 115 |

| Structure (SMILES) | viability at 28.5 h, 10 µM [%] |
| --- | --- |
| Cc1nn(C)cc1-c1cncn1CCCOc1ccc(Cl)cc1 [CBK281787] | 87.5 |
| Cc1nn(C)c(C)c1CCn1cncc1-c1ccc2c(c1)CC(C)N2C (centres unmarked) [CBK281788] | 76 |
| CCCn1nc(C)c(-c2cncn2CCN(C)C2CCCC2)c1C [CBK281790] | 91.3 |
| CCCn1nc(C)c(-c2cncn2CC(C)N2CCC(C)CC2)c1C (centres unmarked) [CBK281791] | 85.2 |
| Cc1cc(C)n(C(C)Cn2cncc2-c2cn(C)nc2C)n1 (centres unmarked) [CBK281792] | 102 |
| CCCn1nc(C)c(-c2cncn2CC(C)n2nc(C)cc2C)c1C (centres unmarked) [CBK281793] | 103 |
| Cc1ccc2c(C)c(-c3cncn3C(C)CN3CCOCC3)oc2c1 (centres unmarked) [CBK281796] | 107 |
| Cc1nn(C)cc1-c1cncn1Cc1ccc2c(c1)CCCO2 [CBK281797] | 90.4 |
| Cc1nn(C)cc1-c1cncn1C(C)c1ccc2c(c1)CCCO2 (centres unmarked) [CBK281798] | 100 |
| Cc1nn(C)cc1-c1cncn1CC1(N(C)C)CCC(C)CC1 (centres unmarked) [CBK281799] | 88.9 |
| CCC(CN1CCOCC1)n1cncc1-c1[nH]c2ccccc2c1C (centres unmarked) [CBK281800] | 106 |
| CN(C)CC(=O)N1CCc2nc(-c3cccc(F)c3)sc2C1 [CBK281801] | 106 |
| Cc1nc2ccccn2c1CN1CCC(Oc2ccc(F)cc2)CC1 [CBK281803] | 90.1 |
| Cc1cc(C)n(C2CCN(Cc3cnn(C4CCCCC4)c3)CC2)n1 [CBK281804] | 89.2 |
| CCn1nc(C)c(-c2cncn2CC(C)N2CCCCC2)c1C (centres unmarked) [CBK281808] | 102 |
| CCN1CCCc2cc(-c3cncn3CCCn3ccnc3C)ccc21 [CBK281810] | 109 |
| Cc1ccccc1OCCCn1cncc1-c1cn(C)nc1C [CBK281813] | 85.1 |
| CC12CCC(=O)N1CCCN2Cc1cnn(-c2ccc(F)cc2)c1 (centres unmarked) [CBK281819] | 94.2 |
| Cc1cc(=O)n(CC(=O)NC(C)c2ccccn2)c2ccccc12 (centres unmarked) [CBK281820] | 96.3 |
| Cc1nc2cc(C(=O)NC(C)c3ccccn3)ccc2n1C (centres unmarked) [CBK281822] | 84.2 |
| Cc1oc2c(c1C(=O)NC(C)c1ccccn1)CCCC2 (centres unmarked) [CBK281825] | 109 |
| Cc1cc(C)n(CCCN(C)Cc2ccc(N3CCCC3=O)cc2)n1 [CBK281827] | 88.3 |
| CCn1c(C)nc2cc(NC(=O)Cn3cccn3)ccc21 [CBK281828] | 89.5 |
| O=C(Cn1cccn1)Nc1ccc2c(c1)CN(Cc1ccccc1)C2 [CBK281829] | 85.6 |

| Structure (SMILES) | viability at 28.5 h, 10 µM [%] |
| --- | --- |
| CCn1c(C)nc2cc(NC(=O)c3c4c(nn3C)CCCC4)ccc21 [CBK281831] | 93.8 |
| CCn1c(C)nc2cc(NC(=O)Cn3cnc4ccccc43)ccc21 [CBK281832] | 94.1 |
| Cc1nc(C)c(C(=O)Nc2ccc3c(c2)CN(Cc2ccccc2)C3)o1 [CBK281835] | 91.2 |
| CCn1c(C)nc2cc(NC(=O)c3cnn(C)c3)ccc21 [CBK281837] | 86.1 |
| Cn1cc(C(=O)Nc2ccc3c(c2)CN(Cc2ccccc2)C3)cn1 [CBK281838] | 94.8 |
| O=C(Cn1cccn1)N1CCc2[nH]c3ccccc3c2C1 [CBK281839] | 92.6 |
| O=C(COCc1nc2ccccc2[nH]1)N1CCC(c2ccccc2)C1 (centres unmarked) [CBK281840] | 97.7 |
| Cc1nc2cc(C(=O)N3CCC(c4ccccc4)C3)ccc2n1C (centres unmarked) [CBK281841] | 66.5 |
| O=C(Cn1ncc2ccccc2c1=O)N1CCC(c2ccccc2)C1 (centres unmarked) [CBK281843] | 90.7 |
| Cn1nc2c(c1C(=O)N1CCc3[nH]c4ccccc4c3C1)CCCC2 [CBK281844] | 79.7 |
| CCN1CCC(CC(=O)N2CCc3[nH]c4ccccc4c3C2)CC1 [CBK281846] | 86.5 |
| O=C(c1cc(-c2cccnc2)[nH]n1)N1CCC(c2ccccc2)C1 (centres unmarked) [CBK281849] | 101 |
| O=C(c1n[nH]c2c1CCC2)N1CCC(c2ccccc2)C1 (centres unmarked) [CBK281851] | 87.9 |
| Cc1noc(C)c1CC(=O)N(C)CCN1CCCCC1 [CBK281855] | 88.8 |
| Cc1nccn1CCNC(=O)c1c2c(nn1C)CCCC2 [CBK281857] | 100 |
| Cc1ccc(C2(C(=O)NCCn3ccnc3C)CCOCC2)cc1 [CBK281858] | 95 |
| Cc1noc(C)c1CC(=O)NCC(C)(C)N1CCCCC1 [CBK281863] | 90.3 |
| CN(C)Cc1ccc(C(=O)NCC(C)(C)N2CCCCC2)cc1 [CBK281865] | 104 |
| Cc1nc(C)c(C(=O)NCC(C)(C)N2CCCCC2)o1 [CBK281866] | 94.2 |
| CCN(C(=O)c1cc2ccc(N(C)C)cc2[nH]1)C1CCN(C)CC1 [CBK281867] | 79.8 |
| Cc1nccn1CCC1CCN(C(=O)c2cn3ccccc3n2)CC1 [CBK281868] | 91.2 |
| O=C(c1cc2c([nH]1)CCCC2)N1CCC(CCN2CCOCC2)CC1 [CBK281869] | 88.9 |
| CCN(C(=O)Cn1c(=O)cc(C)c2ccccc21)C1CCN(C)CC1 [CBK281871] | 86.8 |

Source: PMC12040169 (PLOS Biology, 2025)
